Assay results: publication PMC10976173, “Synthesis of 5-Benzylamino and 5-Alkylamino-Substituted Pyrimido[4,5-c]quinoline Derivatives as CSNK2A Inhibitors with Antiviral Activity” (Pharmaceuticals, 2024)
Converted amounts (≈) assume the structure as drawn. Where two headings read alike, the source gives them in different places.

Assays:
[1] = test system: Mouse Hepatitis Virus (MHV); test: microbe, parasite or virus in culture; assay type: cell-based; conditions: Murine coronavirus, read-out: MHV IC50
Experimental: DBT cells were plated in 96-well plates to be 80% confluent at the start of the assay. Test compounds were diluted to 30 µM in DMEM. […] Molnupiravir (10 µM) was included as a positive control. […] After 1 h, MHV-NLuc was added at an MOI of 0.1 in 50 μL DMEM so that the final concentration of the first dilution of compound was 30 μM (T = 0). After 10 h, the media was aspirated, and the cells were washed with PBS and lysed with passive lysis buffer (Promega) for 20 min at room temperature. Relative light units (RLUs) were measured using a luminometer (Promega; GloMax). Triplicate data were analyzed in GraphPad Prism version 9.5.1 to generate IC50 values (Figure S2).

[2] = parameters: method as in PMID 37077385; conditions: Kinetic solubility; ref [6]; cited from earlier work
[3] = Kinetic solubility in PBS pH 7.4; assay type: physicochemical; conditions: phosphate-buffered saline, pH 7.4, aqueous buffer, kinetic from dmso stock, PBS pH 7.4, 24 h
Experimental: Kinetic solubility assay was conducted using 10 mM DMSO stocks of compounds in phosphate-buffered saline solution (PBS) at pH 7.4 by Analiza, Inc., Cleveland, OH, USA. […] The calculated values were corrected for the background nitrogen in the media and DMSO.

[4] = target: T1, CSNK2A (CSNK2A2-NLuc) (Homo sapiens, UniProt P19784); test: In-cell CSNK2A target engagement by NanoBRET assay; assay type: cell-based; conditions: for IC50: In-cell target engagement by NanoBRET assay, HEK293 cells
T1 construct: expressed in transfected cells; host or cells: HEK293
T1 sequence (P19784 whole entry): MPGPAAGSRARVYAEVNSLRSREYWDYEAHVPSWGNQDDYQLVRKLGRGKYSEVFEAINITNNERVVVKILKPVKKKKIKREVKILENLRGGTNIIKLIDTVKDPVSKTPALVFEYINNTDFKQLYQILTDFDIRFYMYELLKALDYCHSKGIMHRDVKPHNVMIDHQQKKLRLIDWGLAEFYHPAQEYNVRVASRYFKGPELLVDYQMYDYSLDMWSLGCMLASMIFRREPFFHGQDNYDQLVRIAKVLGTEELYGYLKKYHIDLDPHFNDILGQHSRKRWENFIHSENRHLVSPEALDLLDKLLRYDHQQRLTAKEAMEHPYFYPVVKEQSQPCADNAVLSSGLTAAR
Experimental: A transfection complex of DNA at 10 µg/mL was created, consisting of 9 µg/mL of carrier DNA (Promega, Madison, WI, USA) and 1 µg/mL of CSNK2A2-NLuc fusion DNA in Opti-MEM without serum (Gibco). FuGENE HD (Promega) was added at 30 µL/mL to form a lipid/DNA complex. The solution was then mixed and incubated at room temperature for 20 min. […] The following day, the media was removed via aspiration and replaced with 85 μL of Opti-MEM without phenol red. A total of 5 μL per well of 20×-NanoBRET Tracer K10 (Promega) at 5 μM in Tracer Dilution Buffer (Promega N291B) was added to all wells, except the “no tracer” control wells. Test compounds (10 mM in DMSO) were diluted 100× in Opti-MEM media to prepare stock solutions and evaluated at eleven concentrations. A total of 10 μL per well of the 10-fold test compound stock solutions (final assay concentration of 0.1% DMSO) was added. […] 96-well plates containing cells with NanoBRET Tracer K10 and test compounds (100 µL total volume per well) were equilibrated (37 °C/5% CO2) for 2 h. The plates were cooled to room temperature for 15 min. […] A total of 50 μL of the 3× substrate/extracellular NL inhibitor were added to each well. The plates were read within 30 min on a GloMax Discover luminometer (Promega) equipped with 450 nm BP filter (donor) and 600 nm LP filter (acceptor) using 0.3 s integration time. Raw milliBRET (mBRET) values were obtained by dividing the acceptor emission values (600 nm) by the donor emission values (450 nm) and multiplying by 1000. […] The data were first normalized and then fit using Sigmoidal, 4PL binding curve in GraphPad Prism version 9.5.1 to determine IC50 values (Figure S1).

[5] = test system: DiscoverX KinomeSCAN assay panel of >400 human kinases; conditions: cited from earlier work; for Kinases Inhibited: Number of kinases showing 90% inhibition at 1 µM in DiscoverX KINOMEscan, ref [6]
[6] = Inhibition of MHV-NLuc in DBT cells

Compound | Aqueous Solubility [2] | solubility at 24 h [3] | IC50 [1, 6] | melting point | IC50 [4] | Kinases Inhibited [5] | further results
O=C(O)c1ccc2c(c1)nc(NCc1ccccc1)c1ncncc12 [SGC-CK2-2, reference compound] | 210 µM | – | – | – | – | – | IC50 [1]: 15 µM
O=C(O)c1ccc2c(c1)nc(NCC1CCCCC1)c1ncncc12 [Compound 4t, 5-((cyclohexylmethyl)amino)pyrimido[4,5-c]quinoline-8-carboxylic acid] | – | 180 µM (≈ 60.6 µg/mL) | 13 µM | 281 to 283 °C | 0.14 µM | – | Designation ([4]; active / inactive analogs with 10-fold differences in IC50): Active
O=C(O)c1ccc2c(c1)nc(Nc1cccc(Cl)c1)c1ccncc12 [silmitasertib, 5-(3-chlorophenylamino)benzo[c][2,6]naphthyridine-8-carboxylic acid] | 280 µM | – | – | – | – | 28/403 | –
CCC(=O)Nc1cc(Nc2cc(NC3CC3)n3ncc(C#N)c3n2)ccc1C [SGC-CK2-1] | – | – | – | – | – | 3/403 | inhibition of CSNK2A1, CSNK2A2, and STK17B ([5]; at 1 µM, only these kinases of the panel, ref [3]): 90%
O=C(O)c1ccc2c(c1)nc(NCC13CC4CC(CC(C4)C1)C3)c1ncncc12 [Compound 4x, 5-((((3r,5r,7r)-adamantan-1-yl)methyl)amino)pyrimido[4,5-c]quinoline-8-carboxylic acid] | – | ~10 µM (≈ 3.88 µg/mL) | > 30 µM | 292 to 296 °C | 0.14 µM | – | –
O=C(O)c1ccc2c(c1)nc(Nc1ccc3ccccc3c1)c1ncncc12 [Analog-11] | 54 µM | – | – | – | – | 10/403 | –
O=C(O)c1ccc2c(c1)nc(NCc1ccc(F)cc1)c1ncncc12 [Compound 4g, 5-((4-fluorobenzyl)amino)pyrimido[4,5-c]quinoline-8-carboxylic acid] | – | 180 µM (≈ 62.7 µg/mL) | 10 µM | 235 to 238 °C | 0.15 µM | – | –
O=C(O)c1ccc2c(c1)nc(NCC1CCCCCC1)c1ncncc12 [Compound 4u, 5-((cycloheptylmethyl)amino)pyrimido[4,5-c]quinoline-8-carboxylic acid] | – | 150 µM (≈ 52.6 µg/mL) | 18 µM | 280 to 283 °C | 0.2 µM | – | –
